Reference: patent US6299865A, “Reduction of hair growth” (priority 2000, dated 2001)

Columns and labels:
[1] = tested on: tissue nonspecific form of alkaline phosphatase; details: several species; cited from earlier work
Human hair follicles = assay: Human hair follicle growth assay; type: cell-based; details: 0.1 mM, control 0.77 ± .09
Procedure: Human hair follicles in growth phase (anagen) were isolated from face-lift tissue under a dissecting scope using a scalpel and watchmakers forceps. The skin was sliced into thin strips exposing 2-3 rows of follicles that could readily be dissected. Follicles were placed into 0.5 mL Williams E medium (Life Technologies, Gaithersburg, Md.) supplemented with […] L-glutamine, 10 μg/mL insulin, 10 ng/mL hydrocortisone, 100 units penicillin, 0.1 mg/mL streptomycin and 0.25 μg/mL amphotericin B. The follicles were incubated in 24 well plates (1 follicle/well) at 37° C. in an atmosphere of 5% CO2 and 95% air. Hair follicles were video recorded in the 24-well plates under the dissecting scope under a power of 20×. Typically, initial recordings were made on day 0 (day follicles were placed in culture) or day 1, and again on days 7 or 8. Hair follicle lengths were assessed using an image analysis software system (Computer Eyes and NIH Image).

[2] = tested on: tissue-specific form of alkaline phosphatase; details: stereoselective: only the L-form is active; uncompetitive; cited from earlier work

| SMILES | Inhibition of tissue-specific form of alkaline phosphatase [2] | further results |
| --- | --- | --- |
| N=C(N)NCCCC[C@H](N)C(=O)O [L-homoarginine] | – | Inhibition of tissue nonspecific form of alkaline phosphatase [1]: acts as an inhibitor |
| [Na+].[Na+].[Na+].[O]=[V]([O-])([O-])[O-] [Sodium Orthovanadate, sodium orthovanadate] | – | Hair Follicle Length Increase (Day 6-Day 0) (Human hair follicles): 0.32 ± .06 mm |
| CC(C)C[C@H](N)C(=O)O [leucine] | inhibit | – |
| N[C@@H](Cc1ccccc1)C(=O)O [phenylalanine] | inhibit | – |
| N[C@@H](Cc1c[nH]c2ccccc12)C(=O)O [tryptophan] | inhibit | – |
